*1 amine or outer side, *2 acyl side, *3 side chain or, on linkers, in order; H or OH if unused. Where a SMILES comes first, the peptide text is derived from it. Side-chain parts run from the residue outwards. [ ]: non-standard residue; d: D form. The star is where a group is joined. PEG24 = NCCOCCOCCOCCOCCOCCOCCOCCOCCOCCOCCOCCOCCOCCOCCOCCOCCOCCOCCOCCOCCOCCOCCOCCOCCC(=O)O; Bip(2'-Et-4'-O(CH2)4NH2) = CCc1cc(OCCCCN[*:3])ccc1-c1ccc(C[C@H](N[*:1])C(=O)[*:2])cc1; Nva(5-(3,5-Me2Ph)) = Cc1cc(C)cc(CCC[C@H](N)C(=O)O)c1; Ala(1H-tetrazol-5-yl) = N[C@@H](Cc1nnn[nH]1)C(=O)O; αMePhe(2-F) = C[C@](N)(Cc1ccccc1F)C(=O)O; DBCO = C1#Cc2ccccc2N(*)Cc2ccccc21; Suc = O=C(CCC(=O)[*:2])[*:1]; X2 = CC(C)(C(N)=O)C(=O)*

The record followed here is patent US20230330254A1 (Regeneron Pharmaceuticals, Inc., priority 2022, published 2023).

In assay [1] the target is human GLP1R (Homo sapiens, UniProt P43220). Nature of the assay: Luciferase reporter assay, HEK293/CRE-Luc/hGLP1R (Example 17). The conditions noted are these: HEK293/CRE-Luc/hGLP1R; for S/N: highest RLU / RLU of untreated wells; for EC50: payloads and linker-payloads, experiments A-E, M2361 repeated in each, read-out: EC50; for Relative Potency (% M2361 EC50) / Relative Signal:Noise (% M2361): relative to M2361 of the same experiment. The class given is cell-based. Also on record: engineered to express full-length human GLP1R, cynomolgus GLP1R; expressed in transfected cells; host or cells: HEK293/CRE-Luc. The text has this:
(§1) To test the activity of GLP1R agonist payloads, GLP1R agonist linker-payloads (LPs), and anti-GLP1R antibody tethered drug conjugates (ATDCs) of the invention, a cell-based cAMP responsive luciferase reporter assay was developed. To generate the assay cell line, the firefly luciferase gene was placed under the control of a cAMP response element (CRE) located upstream of a minimal promoter and transfected into HEK293 cells and referred to herein as HEK293/CRE-Luc cells.
(§2) Three-fold serial dilutions of free payloads or LPs were prepared in 100% DMSO, transferred to fresh assay media, and added to the cells at a final constant DMSO concentration of 0.2%. The last well in the plate served as a blank control containing only the assay media and 0.2% DMSO (untreated well) and was plotted as a continuation of the 3-fold serial dilution. Four to six hours later, luciferase activity was determined after the addition of One-Glo™ reagent (Promega, Cat #E6130) to each well. Relative light units (RLUs) were measured on an Envision luminometer (PerkinElmer) and EC50 values were determined using a four-parameter logistic equation over a 12-point dose response curve (GraphPad Prism). The signal to noise (S/N) was determined by taking the ratio of the highest RLU on the dose response curve to the RLU in the untreated wells. Data was generated across several experiments (A-E) with M2361 serving as a reference standard in each experiment to calculate the payload relative potency ((M2361 EC50/payload EC50)*100)) and relative S/N ((payload SN/M2361 SN)*100)).
Background: Reporter assays use an easily measured gene product as a stand-in for the process of interest.

The subject of assay [2] is HEK293/CRE-Luc cells. Briefly: Luciferase reporter assay, HEK293/CRE-Luc cells without GLP1R (Example 17). Format: cell-based, human. The conditions noted are these: HEK293/CRE-Luc cells without hGLP1R, payloads and linker-payloads; for EC50: read-out: EC50.
Description: as §1, §2

Chain of human GLP1R (P43220 24-463): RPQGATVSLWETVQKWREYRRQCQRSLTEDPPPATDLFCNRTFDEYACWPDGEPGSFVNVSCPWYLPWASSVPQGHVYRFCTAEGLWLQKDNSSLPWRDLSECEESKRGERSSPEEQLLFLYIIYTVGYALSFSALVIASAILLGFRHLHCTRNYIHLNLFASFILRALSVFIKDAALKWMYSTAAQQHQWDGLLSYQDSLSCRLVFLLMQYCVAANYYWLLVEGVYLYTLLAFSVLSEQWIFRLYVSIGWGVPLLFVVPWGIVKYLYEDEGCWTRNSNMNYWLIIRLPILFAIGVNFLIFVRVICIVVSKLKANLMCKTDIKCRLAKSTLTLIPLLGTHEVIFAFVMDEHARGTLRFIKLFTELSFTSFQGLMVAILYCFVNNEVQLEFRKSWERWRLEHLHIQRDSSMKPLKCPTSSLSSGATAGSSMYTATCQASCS

By EC50 is commonly meant the concentration giving half of the maximal effect. For `CCc1cc(OCCCCNC(=O)[C@H](CO)NC(=O)CNC(=O)CNC(=O)CNC(=O)CNC(=O)CCC(=O)N2Cc3ccccc3C#Cc3ccccc32)ccc1-c1ccc(C[C@H](NC(=O)[C@H](CC(=O)O)NC(=O)[C@H](CO)NC(=O)[C@@H](NC(=O)[C@](C)(Cc2ccccc2F)NC(=O)[C@@H](NC(=O)CNC(=O)[C@H](Cc2nn[nH]n2)NC(=O)C(C)(C)C(N)=O)[C@@H](C)O)[C@@H](C)O)C(=O)N[C@@H](CCCc2cc(C)cc(C)c2)C(N)=O)cc1` [LP14, DIBAC- suc-G4S- P4], in assay [1], the S/N is 78.1, the concentration giving a half-maximal response (EC50) amounted to 0.366 nM, the “Relative Potency (% M2361 EC50)” value came to 2.2% and the “Relative Signal:Noise (% M2361)” value is on record as 108.6%. Besides, in assay [2], the S/N amounted to 1.3 and the EC50 was > 20 nM.
Take `CCc1cc(OCCCCNC(=O)CCOCCOCCOCCOCCOCCOCCOCCOCCOCCOCCOCCOCCOCCOCCOCCOCCOCCOCCOCCOCCOCCOCCOCCOCCNC(=O)CCC(=O)N2Cc3ccccc3C#Cc3ccccc32)ccc1-c1ccc(C[C@H](NC(=O)[C@H](CC(=O)O)NC(=O)[C@H](CO)NC(=O)[C@@H](NC(=O)[C@](C)(Cc2ccccc2F)NC(=O)[C@@H](NC(=O)CNC(=O)[C@H](Cc2nn[nH]n2)NC(=O)C(C)(C)C(N)=O)[C@@H](C)O)[C@@H](C)O)C(=O)N[C@@H](CCCc2cc(C)cc(C)c2)C(N)=O)cc1` [LP13, DIBAC-suc-PEG24-P4] (X2-[Ala(1H-tetrazol-5-yl)]GT[αMePhe(2-F)]TSD[Bip(2'-Et-4'-O(CH2)4NH2)]([PEG24-Suc-DBCO])[Nva(5-(3,5-Me2Ph))]-NH2): in assay [1], the S/N stood at 79.3, the EC50 was 4.83 nM, the “Relative Potency (% M2361 EC50)” value was determined as 0.2% and the “Relative Signal:Noise (% M2361)” value was 110.2%. In assay [2], the S/N was 1.3 and the concentration for a half-maximal effect (EC50) is > 20 nM.
With `CCc1cc(OCCCCN)ccc1-c1ccc(C[C@H](NC(=O)[C@H](CC(=O)O)NC(=O)[C@H](CO)NC(=O)[C@@H](NC(=O)[C@](C)(Cc2ccccc2F)NC(=O)[C@@H](NC(=O)CNC(=O)[C@H](Cc2nn[nH]n2)NC(=O)C2(C)CCN(CCc3cnc[nH]3)C2=O)[C@@H](C)O)[C@@H](C)O)C(=O)N[C@@H](CCCc2cc(C)cc(C)c2)C(N)=O)cc1` (stereo in doubt) [P14], in assay [1], the S/N was determined as 74.9, the EC50 stood at 0.184 nM, the “Relative Potency (% M2361 EC50)” value stood at 2.9% and the “Relative Signal:Noise (% M2361)” value is given as 113.9%. For the same compound, in assay [2], the S/N worked out at 1.6 and the EC50 was > 200 nM.
In the case of `CCc1cc(OCCCCN)ccc1-c1ccc(C[C@H](NC(=O)[C@H](CC(=O)O)NC(=O)[C@H](CO)NC(=O)[C@@H](NC(=O)[C@](C)(Cc2ccccc2F)NC(=O)[C@@H](NC(=O)CNC(=O)[C@@H](N)CCC(N)=O)[C@@H](C)O)[C@@H](C)O)C(=O)N[C@@H](CCCc2cc(C)cc(C)c2)C(N)=O)cc1` [M2913], in assay [1], the S/N turned out to be 3.2, the “Relative Potency (% M2361 EC50)” value is reported as 0.0% and the “Relative Signal:Noise (% M2361)” value came out at 4.9%. In addition, in assay [2], the S/N was found to be 1.1 and the EC50 is > 200 nM.
Take `CCc1cc(OCCCCNC(=O)[C@H](CO)NC(=O)CNC(=O)CNC(=O)CNC(=O)CNC(=O)C(CO)NC(=O)CNC(=O)CNC(=O)CNC(=O)CN)ccc1-c1ccc(C[C@H](NC(=O)[C@H](CC(=O)O)NC(=O)[C@H](CO)NC(=O)[C@@H](NC(=O)[C@](C)(Cc2ccccc2F)NC(=O)[C@@H](NC(=O)CNC(=O)[C@H](Cc2nn[nH]n2)NC(=O)C(C)(C)C(=O)NCCc2cnc[nH]2)[C@@H](C)O)[C@@H](C)O)C(=O)N[C@@H](CCCc2cc(C)cc(C)c2)C(N)=O)cc1` (some centres unmarked) [M2945]: in assay [1], the S/N is 71.8, the EC50 came to 0.0255 nM, the “Relative Potency (% M2361 EC50)” value came to 31.4% and the “Relative Signal:Noise (% M2361)” value is 99.9%. For the same compound, in assay [2], the S/N amounted to 1.4 and the concentration for a half-maximal effect (EC50) was > 20 nM.
